Data on seven molecules can be found in US11352359B2, “PI3K protein kinase inhibitors” (Rhizen Pharmaceuticals SA, priority 2013, dated 2022).

The term inhibition denotes how much of the control response was suppressed. High values mean a response far below the control, low ones a response near the control. The term IC50 denotes the concentration that gives 50% inhibition. Low values mean higher potency, high ones lower potency.

Holding throughout (type): biochemical
For one experiment, the target named is PI3Kγ (Homo sapiens, UniProt P48736). The experiment in a line: Fluorescent determination of PI3Kinase enzyme activity (HTRF), PI3Kγ. The note with it: for inhibition at 0.1 µM: 100 nM (underlined values: 300 nM). The source says: (§1) Fluorescent Determination of PI3Kinase Enzyme Activity
(§2) Phosphoinositide 3 kinases (PI3K) belong to a class of Lipid kinases that play a critical role in the regulation of several key cellular processes. The PI3K are capable of phosphorylating the 3-hydroxy position of phosphoinositols thereby generating second messengers involved in downstream signalling events. The homogenous time resolved fluorescence (HTRF) assay allows detection of 3,4,5-triphosphate (PIP3) formed as a result of phosphorylation of phosphotidylinositol 4,5-biphosphate (PIP2) by PI3K isoforms such as α, […], γ or δ.
(§3) PI3K isoform activity for α, β, γ or δ is to be determined using a PI3K human HTRF™ Assay Kit (Millipore, Billerica, Mass.) with modifications. All incubations were carried out at room temperature. Briefly, 0.5 μl of 40× inhibitor (in 100% DMSO) or 100% DMSO were added to each well of a 384-well black plate (Greiner Bio-One, Monroe, N.C.) containing 14.5 μl 1× reaction buffer/PIP2 (10 mM MgCl2, 5 mM DTT, 1.38 μM PIP2) mix with or without enzyme and incubated for 10 min. After the initial incubation, 5 μl/well of 400 μM ATP was added and incubated for an additional 30 minutes. Reaction was terminated by adding 5 μl/well stop solution (Millipore, Billerica, Mass.). Five microliters of detection mix (Millipore, Billerica, Mass.) were then added to each well and was incubated for 6-18 h in the dark. HRTF ratio was measured on a microplate reader (BMG Labtech, Germany) at an excitation wavelength of 337 nm and emission wavelengths of 665 and 620 nm with an integration time of 400 μsec. Data was analyzed using Graphpad Prism (Graphpad software; San Diego Calif.) for IC50 determination).
For orientation: TR-FRET usually uses a lanthanide donor and a delayed reading to cut background.

The target of another experiment is PI3Kα (Homo sapiens, UniProt P42336). The experiment in a line: Fluorescent determination of PI3Kinase enzyme activity (HTRF), PI3Kα.
Excerpt: as §1, §2, §3

The next experiment deals with PI3Kδ (Homo sapiens, UniProt O00329). The experiment in a line: Fluorescent determination of PI3Kinase enzyme activity (HTRF), PI3Kδ. The note with it: for inhibition at 0.1 µM: 100 nM (underlined values: 300 nM).
Excerpt: as §1, §2, §3

Another experiment has as its target PI3Kβ (Homo sapiens, UniProt P42338). The experiment in a line: Fluorescent determination of PI3Kinase enzyme activity (HTRF), PI3Kβ.
Excerpt: as §1, §2, §3

Chain of PI3Kα (P42336 whole entry): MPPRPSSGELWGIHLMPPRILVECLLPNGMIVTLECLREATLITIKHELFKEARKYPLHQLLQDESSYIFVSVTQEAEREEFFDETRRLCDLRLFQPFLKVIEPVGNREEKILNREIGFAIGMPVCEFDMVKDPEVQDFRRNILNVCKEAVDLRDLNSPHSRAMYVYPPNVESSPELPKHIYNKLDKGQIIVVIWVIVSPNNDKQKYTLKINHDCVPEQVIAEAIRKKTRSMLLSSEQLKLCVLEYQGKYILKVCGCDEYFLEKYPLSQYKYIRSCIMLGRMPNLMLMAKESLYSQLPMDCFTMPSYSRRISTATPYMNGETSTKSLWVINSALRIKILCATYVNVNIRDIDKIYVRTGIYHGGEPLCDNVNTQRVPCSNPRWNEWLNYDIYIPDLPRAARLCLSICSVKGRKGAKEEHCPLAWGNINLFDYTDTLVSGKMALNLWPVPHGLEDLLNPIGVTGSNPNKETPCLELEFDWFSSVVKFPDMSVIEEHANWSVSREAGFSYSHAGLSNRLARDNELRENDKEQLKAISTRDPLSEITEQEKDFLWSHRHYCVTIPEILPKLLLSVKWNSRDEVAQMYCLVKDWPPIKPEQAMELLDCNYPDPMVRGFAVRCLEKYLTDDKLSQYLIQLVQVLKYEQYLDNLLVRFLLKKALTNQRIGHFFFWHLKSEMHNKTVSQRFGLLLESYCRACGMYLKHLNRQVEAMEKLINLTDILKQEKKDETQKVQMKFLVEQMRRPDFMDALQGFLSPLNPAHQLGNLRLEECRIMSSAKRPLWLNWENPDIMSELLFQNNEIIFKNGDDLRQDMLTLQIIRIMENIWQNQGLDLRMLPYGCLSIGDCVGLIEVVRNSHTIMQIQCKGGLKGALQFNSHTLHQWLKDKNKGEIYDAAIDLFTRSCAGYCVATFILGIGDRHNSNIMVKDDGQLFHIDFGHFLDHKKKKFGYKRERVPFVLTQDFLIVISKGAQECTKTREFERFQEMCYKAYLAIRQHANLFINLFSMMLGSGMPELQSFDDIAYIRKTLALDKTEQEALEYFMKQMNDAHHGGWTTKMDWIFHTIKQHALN
Chain of PI3Kα (P27986 whole entry partner): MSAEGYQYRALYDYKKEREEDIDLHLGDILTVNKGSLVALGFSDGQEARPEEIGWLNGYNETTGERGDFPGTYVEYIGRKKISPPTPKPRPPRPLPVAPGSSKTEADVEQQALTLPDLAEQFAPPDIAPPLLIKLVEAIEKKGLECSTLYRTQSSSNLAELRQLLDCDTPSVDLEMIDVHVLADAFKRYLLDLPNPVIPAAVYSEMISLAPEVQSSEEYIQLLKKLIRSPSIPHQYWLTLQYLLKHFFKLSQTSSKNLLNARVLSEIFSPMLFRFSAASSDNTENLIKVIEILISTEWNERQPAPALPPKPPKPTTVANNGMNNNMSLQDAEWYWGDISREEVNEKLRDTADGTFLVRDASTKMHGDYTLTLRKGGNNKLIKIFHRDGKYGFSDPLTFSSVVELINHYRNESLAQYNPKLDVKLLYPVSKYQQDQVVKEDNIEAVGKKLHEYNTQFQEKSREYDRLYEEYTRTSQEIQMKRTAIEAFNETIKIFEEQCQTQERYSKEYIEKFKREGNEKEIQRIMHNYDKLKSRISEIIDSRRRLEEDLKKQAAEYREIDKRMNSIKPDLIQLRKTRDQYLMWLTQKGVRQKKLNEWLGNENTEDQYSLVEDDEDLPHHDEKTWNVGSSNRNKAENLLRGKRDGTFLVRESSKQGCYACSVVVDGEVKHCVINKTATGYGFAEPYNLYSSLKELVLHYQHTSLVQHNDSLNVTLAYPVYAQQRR
Chain of PI3Kδ (O00329 whole entry): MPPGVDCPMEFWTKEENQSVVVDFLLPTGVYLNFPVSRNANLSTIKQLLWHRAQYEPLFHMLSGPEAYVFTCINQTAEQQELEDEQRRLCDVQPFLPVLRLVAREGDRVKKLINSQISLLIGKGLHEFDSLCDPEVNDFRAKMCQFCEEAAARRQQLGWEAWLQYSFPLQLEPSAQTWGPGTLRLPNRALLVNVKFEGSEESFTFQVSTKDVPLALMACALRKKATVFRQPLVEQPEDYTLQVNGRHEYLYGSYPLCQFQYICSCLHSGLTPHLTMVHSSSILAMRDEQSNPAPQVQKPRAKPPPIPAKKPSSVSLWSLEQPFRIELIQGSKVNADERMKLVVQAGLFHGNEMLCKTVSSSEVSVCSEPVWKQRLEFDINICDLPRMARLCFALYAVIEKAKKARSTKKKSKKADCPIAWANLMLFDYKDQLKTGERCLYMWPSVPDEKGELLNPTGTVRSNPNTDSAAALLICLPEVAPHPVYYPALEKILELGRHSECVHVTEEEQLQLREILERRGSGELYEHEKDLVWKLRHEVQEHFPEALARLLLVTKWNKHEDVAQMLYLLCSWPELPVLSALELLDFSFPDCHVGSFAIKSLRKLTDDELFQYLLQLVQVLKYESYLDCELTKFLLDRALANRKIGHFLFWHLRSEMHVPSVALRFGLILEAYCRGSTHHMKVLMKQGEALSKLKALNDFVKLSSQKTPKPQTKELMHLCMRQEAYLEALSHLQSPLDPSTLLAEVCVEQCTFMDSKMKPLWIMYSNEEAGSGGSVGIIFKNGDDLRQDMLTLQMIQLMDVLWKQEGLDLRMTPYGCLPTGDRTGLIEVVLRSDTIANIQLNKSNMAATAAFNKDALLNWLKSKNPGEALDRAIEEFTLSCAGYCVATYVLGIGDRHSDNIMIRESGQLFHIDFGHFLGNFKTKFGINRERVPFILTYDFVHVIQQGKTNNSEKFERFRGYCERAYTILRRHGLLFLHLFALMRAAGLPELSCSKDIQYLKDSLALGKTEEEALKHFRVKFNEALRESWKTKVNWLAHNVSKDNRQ
Chain of PI3Kδ (P27986 whole entry partner): as the sequence (P27986 whole entry partner) above
Chain of PI3Kβ (P42338 whole entry): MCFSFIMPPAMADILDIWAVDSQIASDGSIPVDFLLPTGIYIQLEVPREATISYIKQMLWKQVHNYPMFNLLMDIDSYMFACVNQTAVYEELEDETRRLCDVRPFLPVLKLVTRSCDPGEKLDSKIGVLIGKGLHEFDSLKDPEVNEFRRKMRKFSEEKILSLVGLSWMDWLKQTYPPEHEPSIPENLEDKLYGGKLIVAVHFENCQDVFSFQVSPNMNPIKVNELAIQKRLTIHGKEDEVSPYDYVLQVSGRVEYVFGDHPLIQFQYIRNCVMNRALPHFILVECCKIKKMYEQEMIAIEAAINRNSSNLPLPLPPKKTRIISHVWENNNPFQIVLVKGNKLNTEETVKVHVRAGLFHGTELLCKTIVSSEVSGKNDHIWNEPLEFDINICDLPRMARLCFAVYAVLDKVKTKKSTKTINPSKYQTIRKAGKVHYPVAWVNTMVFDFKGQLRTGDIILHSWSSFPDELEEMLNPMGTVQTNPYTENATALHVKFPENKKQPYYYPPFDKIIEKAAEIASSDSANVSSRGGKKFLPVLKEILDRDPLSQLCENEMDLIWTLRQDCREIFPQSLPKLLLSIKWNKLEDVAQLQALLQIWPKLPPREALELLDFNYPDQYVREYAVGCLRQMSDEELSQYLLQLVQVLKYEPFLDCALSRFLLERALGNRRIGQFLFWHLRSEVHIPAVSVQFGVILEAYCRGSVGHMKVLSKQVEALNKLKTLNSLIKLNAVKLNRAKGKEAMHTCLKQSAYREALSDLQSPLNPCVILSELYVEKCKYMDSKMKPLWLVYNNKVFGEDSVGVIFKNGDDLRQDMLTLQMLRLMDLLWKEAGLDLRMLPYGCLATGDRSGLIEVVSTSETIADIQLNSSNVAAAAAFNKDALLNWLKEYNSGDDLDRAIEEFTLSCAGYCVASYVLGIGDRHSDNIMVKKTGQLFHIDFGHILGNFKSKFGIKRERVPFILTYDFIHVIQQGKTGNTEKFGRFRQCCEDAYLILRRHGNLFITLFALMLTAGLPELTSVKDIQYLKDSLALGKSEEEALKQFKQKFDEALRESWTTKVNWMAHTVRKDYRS
Chain of PI3Kβ (P27986 whole entry partner): as the sequence (P27986 whole entry partner) above
Chain of PI3Kγ (P48736 whole entry, canonical isoform): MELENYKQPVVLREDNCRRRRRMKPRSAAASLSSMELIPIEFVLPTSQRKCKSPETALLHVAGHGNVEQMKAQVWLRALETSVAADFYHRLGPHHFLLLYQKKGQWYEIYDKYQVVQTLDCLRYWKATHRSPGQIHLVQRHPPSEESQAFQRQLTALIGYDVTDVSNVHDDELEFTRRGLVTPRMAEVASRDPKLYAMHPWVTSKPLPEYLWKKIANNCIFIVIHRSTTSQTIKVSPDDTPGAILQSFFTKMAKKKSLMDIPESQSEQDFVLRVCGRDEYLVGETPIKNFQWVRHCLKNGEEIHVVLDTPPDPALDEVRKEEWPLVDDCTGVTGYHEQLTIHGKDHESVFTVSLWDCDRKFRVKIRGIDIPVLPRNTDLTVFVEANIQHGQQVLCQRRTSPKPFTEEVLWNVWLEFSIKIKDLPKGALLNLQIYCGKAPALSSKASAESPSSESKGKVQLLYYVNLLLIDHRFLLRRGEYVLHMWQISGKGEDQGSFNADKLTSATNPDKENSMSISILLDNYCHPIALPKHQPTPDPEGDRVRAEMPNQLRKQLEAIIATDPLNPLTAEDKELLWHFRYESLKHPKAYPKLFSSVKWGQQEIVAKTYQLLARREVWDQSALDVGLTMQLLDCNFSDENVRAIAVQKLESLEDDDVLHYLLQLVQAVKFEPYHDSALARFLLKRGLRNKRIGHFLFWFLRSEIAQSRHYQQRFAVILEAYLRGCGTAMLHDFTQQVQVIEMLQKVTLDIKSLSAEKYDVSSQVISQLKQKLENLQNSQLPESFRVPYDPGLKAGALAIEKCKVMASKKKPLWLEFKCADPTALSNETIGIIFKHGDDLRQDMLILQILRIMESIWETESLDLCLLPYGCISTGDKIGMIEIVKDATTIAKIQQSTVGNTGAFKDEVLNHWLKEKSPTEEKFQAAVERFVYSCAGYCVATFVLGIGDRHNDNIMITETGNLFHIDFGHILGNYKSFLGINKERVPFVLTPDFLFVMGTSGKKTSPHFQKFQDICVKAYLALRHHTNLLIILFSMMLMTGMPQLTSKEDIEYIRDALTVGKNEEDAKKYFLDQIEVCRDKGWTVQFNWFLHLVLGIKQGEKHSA

As for `COc1ccc(-c2nn(C(C)c3cc4cccc(Cl)c4c(=O)n3-c3ccccc3)c3ncnc(N)c23)cc1NS(C)(=O)=O` (stereo not shown) [Example 20, N-(5-(4-amino-1-(1-(8-chloro-1-oxo-2-phenyl-1,2-dihydroisoquinolin-3-yl)ethyl)-1H-pyrazolo[3,4-d]pyrimidin-3-yl)-2-methoxyphenyl)methanesulfonamide], the inhibition at 0.1 µM against PI3Kγ fell in the range of 60 to 80%; against PI3Kδ it was 80 to 100%. Moreover, the inhibition at 1 µM lay within 40 to 60% at PI3Kα and 20 to 40% against PI3Kβ.
For the molecule `C[C@@H](c1cc2cccc(F)c2c(=O)n1-c1ccccc1)n1nc(-c2ccc(O)c(F)c2)c2c(N)ncnc21` [Example 15a, (+)-3-(1-(4-amino-3-(3-fluoro-4-hydroxyphenyl)-1H-pyrazolo[3,4-d]pyrimidin-1-yl)ethyl)-8-fluoro-2-phenylisoquinolin-1(2H)-one], the half-inhibitory concentration (IC50) on PI3Kγ turned out to be 52 nM; against PI3Kδ, 9.99 nM. Also, the inhibition at 0.1 µM against PI3Kγ lay in the range of 40 to 60%; on PI3Kδ it was 80 to 100%. The inhibition at 1 µM against PI3Kα is 0 to 10%; against PI3Kβ it was 10 to 20%.
Take `CC(C)Oc1ccc(-c2nn([C@@H](C)c3nc4ccccc4c(=O)n3-c3ccccc3)c3ncnc(N)c23)cc1F` [Example 6a, (+)-2-(1-(4-amino-3-(3-fluoro-4-isopropoxyphenyl)-1H-pyrazolo[3,4-d]pyrimidin-1-yl)ethyl)-3-phenylquinazolin-4(3H)-one]: the IC50 against PI3Kγ stood at 15 nM; against PI3Kδ, 2.74 nM. For the same molecule, the values for the inhibition at 0.1 µM at PI3Kγ and against PI3Kδ were 40 to 60% and 80 to 100%, respectively. The inhibition at 1 µM on PI3Kα was in the range of 0 to 10%; against PI3Kβ, 20 to 40%.
For `CC(c1cc2ccccc2c(=O)n1-c1ccccc1)n1nc(-c2ccc(O)c(F)c2)c2c(N)ncnc21` (stereo not shown) [Example 7, 3-(1-(4-amino-3-(3-fluoro-4-hydroxyphenyl)-1H-pyrazolo[3,4-d]pyrimidin-1-yl)ethyl)-2-phenylisoquinolin-1(2H)-one], the figures for the inhibition at 0.1 µM at PI3Kγ and on PI3Kδ were 20 to 40% and 40 to 60%, respectively. The inhibition at 1 µM at PI3Kα is 10 to 20%; at PI3Kβ, 20 to 40%.
With `COc1ccc(-c2nn(C(C)c3nc4ccccc4c(=O)n3-c3ccccc3)c3ncnc(N)c23)cc1NS(C)(=O)=O` (stereo not shown) [Example 12, N-(5-(4-amino-1-(1-(4-oxo-3-phenyl-3,4-dihydroquinazolin-2-yl)ethyl)-1H-pyrazolo[3,4-d]pyrimidin-3-yl)-2-methoxyphenyl)methanesulfonamide], the inhibition at 0.1 µM against PI3Kγ was in the range of 20 to 40%; against PI3Kδ, 0 to 20%. Also, the values for the inhibition at 1 µM on PI3Kα and against PI3Kβ were 0 to 10% and 20 to 40%, respectively.
Consider `COc1ccc(-c2nn([C@@H](C)c3cc4cccc(Cl)c4c(=O)n3-c3ccccc3)c3ncnc(N)c23)cc1NS(C)(=O)=O` [Example 20a, (+)—N-(5-(4-amino-1-(1-(8-chloro-1-oxo-2-phenyl-1,2-dihydroisoquinolin-3-yl)ethyl)-1H-pyrazolo[3,4-d]pyrimidin-3-yl)-2-methoxyphenyl)methanesulfonamide], for which the half-maximal inhibitory concentration (IC50) is 142 nM at PI3Kγ and 76.4 nM against PI3Kδ. Further, the inhibition at 0.1 µM against PI3Kγ fell in the range of 20 to 40%; at PI3Kδ, 60 to 80%. Moreover, the inhibition at 1 µM was 0 to 10% against PI3Kα and 10 to 20% at PI3Kβ.
`CC(C)Oc1ccc(-c2nn(C(C)c3cc4cccc(F)c4c(=O)n3-c3ccccc3)c3ncnc(N)c23)cc1F` (stereo not shown) [Example 2, 3-(1-(4-amino-3-(3-fluoro-4-isopropoxyphenyl)-1H-pyrazolo[3,4-d]pyrimidin-1-yl)ethyl)-8-fluoro-2-phenylisoquinolin-1(2H)-one]: the inhibition at 0.1 µM on PI3Kγ and at PI3Kδ was 0 to 20% throughout. The inhibition at 1 µM against PI3Kα was in the range of 0 to 10%; against PI3Kβ, 10 to 20%.
